Laboratory results taken from patent US7754736B2, “5-aminoindole derivatives as H3 inverse agonists” (Hoffmann-La Roche Inc., priority 2005, dated 2010).
Structures can show the parent of a compound that is named as a salt.

Target: T1, histamine 3 receptor (H3R) (Homo sapiens, UniProt Q9Y5N1)
T1 construct: expressed in transfected cells; host or cells: CHO cells
Test: Competition binding assay with 3H-(R)α-methylhistamine on membranes of the human HR3-CHO cell line
Settings: competition with 3H(R)α-Methylhistamine (1 nM), Ki calculated from IC50 by Cheng-Prusoff equation
Description: Binding Assay with ^3H-(R)α-methylhistamine Saturation binding experiments were performed using HR3-CHO membranes prepared as described in […]. Pharmacol. Exp. Therapeutics 307, 213-218. An appropriate amount of membrane (60 to 80 μg protein/well) was incubated with increasing concentrations of ^3H(R)α-Methylhistamine di-hydrochloride (0.10 to 10 nM). Non specific binding was determined using a 200 fold excess of cold (R)α-Methylhistamine dihydrobromide (500 nM final concentration). The incubation was carried out at room temperature (in deep-well plates shaking for three hours). The final volume in each well was 250 μl. The incubation was followed by rapid filtration on GF/B filters (pre-soaked with 100 μl of 0.5% PEI in Tris 50 mM shaking at 200 rpm for two hours). The filtration was made using a cell-harvester and the filter plates were then washed five times with ice cold washing buffer containing 0.5 M NaCl. After harvesting, the plates were dried at 55° C. for 60 min, then we added scintillation fluid (Microscint 40, 40 microl in each well) and the amount of radioactivity on the filter was determined in Packard top-counter after shaking the plates for two hours at 200 rpm at room temperature. Binding Buffer: 50 mM Tris-HCl pH 7.4 and 5 mM MgCl2×6H2O pH 7.4. Washing Buffer: 50 mM Tris-HCl pH 7.4 and 5 mM MgCl2×6H2O and 0.5 M NaCl pH 7.4. […] An appropriate amount of protein, e.g. approximately 500 cpm binding of RAMH at Kd, were incubated for 1 hour at room temperature in 250 μl final volume in 96-well plates in presence of ^3H(R)α-Methylhistamine (1 nM final concentration=Kd). Non-specific binding was determined using a 200 fold excess of cold (R)α-Methylhistamine dihydrobromide. All compounds were tested at a single concentration in duplicates. […] Ki's were calculated from IC50 based on Cheng-Prusoff equation (Cheng, Y, Prusoff, W H (1973) Biochem Pharmacol 22, 3099-3108).

T1 sequence (Q9Y5N1 whole entry): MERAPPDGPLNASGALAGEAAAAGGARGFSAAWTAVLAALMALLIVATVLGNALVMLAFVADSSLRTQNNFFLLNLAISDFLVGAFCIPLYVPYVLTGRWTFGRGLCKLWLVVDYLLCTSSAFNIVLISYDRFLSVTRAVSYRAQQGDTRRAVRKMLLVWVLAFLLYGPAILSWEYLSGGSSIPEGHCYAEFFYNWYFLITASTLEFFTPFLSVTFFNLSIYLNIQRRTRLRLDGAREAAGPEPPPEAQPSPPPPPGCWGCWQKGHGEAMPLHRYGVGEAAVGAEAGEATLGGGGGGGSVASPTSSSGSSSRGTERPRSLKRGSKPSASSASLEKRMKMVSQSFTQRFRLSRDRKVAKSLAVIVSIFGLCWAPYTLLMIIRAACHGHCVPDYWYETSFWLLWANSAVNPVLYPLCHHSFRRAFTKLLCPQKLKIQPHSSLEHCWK

Ki [nM]	SMILES
47.5	CC(C)N1CCC(Nc2ccc3[nH]c(C(=O)N4CCOCC4)cc3c2)CC1 [Example 3, [5-(1-isopropyl-piperidin-4-ylamino)-1H-indol-2-yl]-morpholin-4-yl-methanone]
66	CC(C)N1CCC(Oc2ccc3[nH]c(C(=O)N(C)C(C)C)cc3c2)CC1 [Example 19, 5-(1-isopropyl-piperidin-4-yloxy)-1H-indole-2-carboxylic acid isopropyl-methyl-amide]
256	CC(C)N1CCC(Nc2ccc3[nH]c(C(=O)N4CCOCC4)cc3c2)C1 (stereo not drawn) [Example 11, [5-(1-isopropyl-pyrrolidin-3-ylamino)-1H-indol-2-yl]-morpholin-4-yl-methanone bis-hydrochloride]
